The test addresses recombinant eIF4E (Homo sapiens (Human), UniProt P06730). The test can be described thus: Fluorescence polarization competition assay for eIF4E binding potency. The essentials:
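Competition of test compound against 20 nM EDA-m^7GDP-ATTO-550 for 75 nM recombinant eIF4E, pre-incubated 5 min, in 20 mM Tris pH 7.5, 100 mM NaCl, 1 mM DTT, 0.02% Tween-20, 1% DMSO. Equilibrated 30 min at room temperature, dark; fluorescence polarization read. IC50 from 8-point, 3-fold dilution series.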
(Polarisation of emitted light reports the rotation of a fluorescent probe.)

Setting [1] is: fluorescence polarization competition, 75 nM recombinant eIF4E, 20 nM EDA-m7GDP-ATTO-550, IC50 class, read-out: elF4E FP.
Where [2] appears, read: inhibition of eIF4E/EDA-m7GDP-ATTO-550 binding by 50%, Table 4B calculated values, read-out: IC50.
Setting [3] is: inhibition of eIF4E/EDA-m7GDP-ATTO-550 binding, calculated IC50 values, Table 4B, read-out: IC50.

Where two headings read alike, the source gives them in different places.

Chain of recombinant eIF4E (P06730 whole entry): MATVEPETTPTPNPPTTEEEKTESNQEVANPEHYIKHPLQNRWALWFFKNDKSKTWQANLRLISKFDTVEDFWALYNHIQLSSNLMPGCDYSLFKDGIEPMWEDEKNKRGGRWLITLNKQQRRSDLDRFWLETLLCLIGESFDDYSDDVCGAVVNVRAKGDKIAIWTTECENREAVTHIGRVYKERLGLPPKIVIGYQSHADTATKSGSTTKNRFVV

`Cc1ccc(Nc2c(Cl)cc3nc(C)n(CCOc4ccc(Cl)cc4-c4cc(C)nc5c(C(=O)O)csc45)c(=O)c3c2C#N)cn1` [compound 960]: the IC50 is, setting by setting: under setting [1], less than 50 nM; under setting [2], 39.6 nM.
For the molecule `CSC1CN(c2c(Cl)cc3nc(C)n(CCOc4ccc(Cl)cc4-c4cc(C)nc5c(C(=O)O)csc45)c(=O)c3c2C#N)C1` [compound 704], the IC50 under setting [1] was 50 to 1000 nM and the IC50 under setting [2] was 89 nM.
Consider `Cc1nc2cnc(N3CCN(C4CC(F)(F)C4)CC3)c(C#N)c2c(=O)n1CCOc1ccc(Cl)cc1-c1ccnc2c(C(=O)O)csc12` [compound 1307], for which the IC50 under setting [3] was 54.2 nM.
Consider `Cc1cc(-c2cc(Cl)ccc2OCCn2c(C)nc3cc(C(F)(F)F)c(CCN(C)C)c(C#N)c3c2=O)c2scc(C(=O)O)c2n1` [compound 610], for which the IC50 is, setting by setting: under setting [1], less than 50 nM; under setting [2], 13.9 nM.
`Cc1cc(-c2cc(Cl)ccc2OCCn2c(C)nc3cnc(N(C)C4CCN(C)CC4)c(C#N)c3c2=O)c2sc(C)c(C(=O)O)c2n1` [compound 848]: the IC50 was less than 50 nM under setting [1] and 26.9 nM under setting [2].
The corresponding values for `Cc1nc2ccc(S(=O)(=O)NCc3ccccc3)c(C#N)c2c(=O)n1CCOc1ccc(Cl)cc1-c1ccnc2c(C(=O)O)csc12` [compound 252] are less than 50 nM and 42 nM.
Consider `Cc1c(C(F)(F)F)c(N2CCN(C)CC2)c(C#N)c2c(=O)n(CCOc3ccc(Cl)cc3-c3ccnc4c(C(=O)O)csc34)c(C)nc12` [compound 1934], for which, under setting [3], the IC50 was 38.5 nM.
As for `Cc1cc(-c2cc(Cl)ccc2OCCn2c(C)nc3cc(C(F)(F)F)cc(C#N)c3c2=O)c2csc(C(=O)O)c2n1` [compound 447], the IC50 runs as follows: under setting [1], 50 to 1000 nM; under setting [2], 84.8 nM.
The corresponding values for `Cc1cc(-c2c(C(F)(F)F)cc3nc(C)n(CCOc4ccc(Cl)cc4-c4cc(C)nc5c(C(=O)O)csc45)c(=O)c3c2C#N)c(C)cn1` [compound 469] are less than 50 nM and 2.25 nM.
Turning to `Cc1nc2cnc(N(C)C3CCN(C4(C(F)(F)F)CC4)CC3)c(C#N)c2c(=O)n1CC#Cc1ccc(Cl)cc1-c1ccnc2c(C(=O)O)csc12` [compound 1530], under setting [3], the IC50 was 33.5 nM.
Same read-out and setting: as for `Cc1nc2cnc(N3CCC(N(C)C4CC4)CC3)c(C#N)c2c(=O)n1CC#Cc1ccc(Cl)cc1-c1ccnc2c(C(=O)O)csc12` [compound 1527], the figure is 15.6 nM.
Regarding `Cc1nc2cnc(N3CCN(C4(C)CC4)CC3)c(C#N)c2c(=O)n1CCOc1ccc(Cl)cc1-c1ccnc2c(C(=O)O)csc12` [compound 1365], the IC50 under setting [3] was 34.1 nM.
Take `Cc1nc2cnc(OC3CCNCC3)c(C#N)c2c(=O)n1CCOc1ccc(Cl)cc1-c1ccnc2c(C(=O)O)csc12` [compound 819]: the IC50 by setting is: under setting [1], less than 50 nM; under setting [2], 28.2 nM.
As for `Cc1nc2cnc(NC3CCCC3)cc2c(=O)n1CCOc1ccc(Cl)cc1-c1cccc(C(=O)O)c1` [compound 2005], the IC50 under setting [3] was 364 nM.
In the case of `Cc1nc2cncc(C#N)c2c(=O)n1CCOc1ccc(Cl)cc1-c1ccc(C(=O)O)c(C(=O)O)c1` [compound 147], the IC50 runs as follows: under setting [1], less than 50 nM; under setting [2], 14.7 nM.
The corresponding values for `Cc1nc2cnc(N(C)C3CCN(C4CC(F)(F)C4)CC3)c(C#N)c2c(=O)n1CC#Cc1ccc(Cl)cc1-c1ccnc2c(C(=O)O)csc12` [compound 1165] are less than 50 nM and 22.3 nM.
The corresponding values for `Cc1cc(-c2cc(Cl)ccc2OCCn2c(C)nc3c(C)ncc(C#N)c3c2=O)c2scc(C(O)(O)C(F)(F)F)c2n1` [compound 732] are 50 to 1000 nM and 874 nM.
The corresponding values for `Cc1cc(-c2cc(Cl)ccc2OCCn2c(C)nc3cc(C(F)(F)F)c(C)c(C#N)c3c2=O)c2scc(C(=O)O)c2n1` [compound 363] are less than 50 nM and 22.8 nM.
`Cc1nc2cnc(/C=C/CN(C)CCF)c(C#N)c2c(=O)n1CCOc1ccc(Cl)cc1-c1ccnc2c(C(=O)O)csc12` [compound 1328]: the IC50 under setting [3] is 24.8 nM.
`CCN(c1ncc2nc(C)n(CC#Cc3ccc(Cl)cc3-c3ccnc4c(C(=O)NS(=O)(=O)c5cccnc5)csc34)c(=O)c2c1C#N)C1CCN([C@H]2C[C@H](OC(F)F)C2)CC1` [compound 1770]: the IC50 under setting [3] is 17.5 nM.
In the case of `Cc1cnc(C)c(-c2nc3c(=O)n(CCOc4ccc(Cl)cc4-c4cc(C)nc5c(C(=O)O)csc45)c(C)nc3cc2C(F)(F)F)n1` [compound 1022], the IC50 by setting is: under setting [1], less than 50 nM; under setting [2], 42.4 nM.
`Cc1cc(O)c(-c2c(C(F)(F)F)cc3nc(C)n(CCOc4ccc(Cl)cc4-c4cc(C)nc5c(C(=O)O)csc45)c(=O)c3c2C#N)cn1` [compound 1389]: the IC50 under setting [3] is 1190 nM.
With `O=C(O)c1cccc(-c2cc(Cl)ccc2OCCc2cc(C(F)(F)F)nc3nc(Nc4ccccc4)[nH]c(=O)c23)c1` [compound 178], the IC50 is, setting by setting: under setting [1], 50 to 1000 nM; under setting [2], 140 nM.
As to `N#Cc1cc2c(=O)n(CCOc3ccc(Cl)cc3-c3cc(C(=O)O)ccc3C3CC3)cnc2cn1` [compound 92], the IC50 runs as follows: under setting [1], greater than 1000 nM; under setting [2], greater than 3000 nM.
With `Cc1cc(-c2cc(Cl)ccc2OCCn2c(C)nc3cc(C(F)(F)F)cc(C#N)c3c2=O)cc(C(=O)O)n1` [compound 410], the IC50 reads like this: under setting [1], 50 to 1000 nM; under setting [2], 62.6 nM.
As to `Cc1cc(-c2cc(Cl)ccc2OCCn2c(C)nc3cc(C(F)(F)F)c(N(C)C)c(C#N)c3c2=O)c2scc(C(=O)O)c2n1` [compound 1619], under setting [3], the IC50 was 31.6 nM.
With `Cc1cc(-c2cc(Cl)ccc2OCCn2c(C)nc3cc(C(F)(F)F)c(CN(C)C)c(C#N)c3c2=O)c2scc(C(=O)O)c2n1` [compound 559], the IC50 under setting [1] was less than 50 nM and the IC50 under setting [2] is 8.69 nM.
On to `Cc1nc2cc(C(F)(F)F)cc(C#N)c2c(=O)n1CCOc1ccnnc1-c1ccnc2c(C(=O)O)csc12` [compound 453], for which the IC50 was greater than 1000 nM under setting [1] and 2320 nM under setting [2].
In the case of `Cc1cc(-c2cc(Cl)ccc2OCCn2c(C)nc3c(C(F)(F)F)cc(Cl)nc3c2=O)c2scc(C(=O)O)c2n1` [compound 680], the IC50 runs as follows: under setting [1], 50 to 1000 nM; under setting [2], 56.6 nM.
Regarding `Cc1cccc(-c2c(C(F)(F)F)cc3nc(C)n(CCOc4ccc(Cl)cc4-c4cccc(C(=O)O)c4)c(=O)c3c2C#N)n1` [compound 375], the IC50 under setting [1] is 50 to 1000 nM and the IC50 under setting [2] was 58 nM.
The corresponding values for `Cc1nc(N2CCN(C)C3CC32)c(C#N)c2c(=O)n(CC#Cc3ccc(Cl)cc3-c3ccnc4c(C(=O)O)csc34)c(C)nc12` (centres unmarked) [compound 656] are less than 50 nM and 33.4 nM.
The corresponding values for `Cc1cc(-c2cc(Cl)ccc2C#CCn2c(C)nc3cc(C(F)(F)F)c(CN(C)C)c(C#N)c3c2=O)c2scc(C(=O)O)c2n1` [compound 562] are less than 50 nM and 8.78 nM.
With `Cc1nc2cc(C(F)(F)F)cc(C#N)c2c(=O)n1CC#Cc1ccc(Cl)cc1-c1ccnc2c(C(=O)O)csc12` [compound 1901], the IC50 under setting [3] is 35.7 nM.
On to `Cc1nc2cnc(N3CCC4(CC3)CN(CC(C)(F)F)C4)c(C#N)c2c(=O)n1CC#Cc1ccc(Cl)cc1-c1ccnc2c(C(=O)O)csc12` [compound 1137], for which the IC50 was less than 50 nM under setting [1] and 17.4 nM under setting [2].
In the case of `CNc1nc2c(F)ccc(CCOc3ccc(Cl)cc3-c3cccc(C(=O)O)c3)c2c(=O)[nH]1` [compound 171], the IC50 was 50 to 1000 nM under setting [1] and 194 nM under setting [2].
Take `CCc1cc(-c2cc(Cl)ccc2OCCn2c(C)nc3cc(C(F)(F)F)c(N4CCN(C)CC4)cc3c2=O)c2scc(C(=O)O)c2n1` [compound 1083]: the IC50 is less than 50 nM under setting [1] and 44 nM under setting [2].
The corresponding values for `N#Cc1cc2c(=O)n(CCOc3ccc(Cl)cc3-c3cc4c(c(C(=O)O)c3)OCO4)cnc2cn1` [compound 96] are greater than 1000 nM and 2100 nM.
Take `Cc1nc2cc(C(F)(F)F)cc(S(C)(=O)=O)c2c(=O)n1CCOc1ccc(Cl)cc1-c1ccnc2c(C(=O)O)csc12` [compound 223]: the IC50 is, setting by setting: under setting [1], 50 to 1000 nM; under setting [2], 950 nM.
Regarding `Cc1nc2cnc(N(C)C3CCN(CCF)CC3)c(C#N)c2c(=O)n1CC#Cc1ccc(Cl)cc1-c1ccnc2c(C(=O)O)csc12` [compound 1653], under setting [3], the IC50 is 26.5 nM.
As for `Cc1nc2cnc(C3=CCN(C)CC3)c(C#N)c2c(=O)n1CCOc1ccc(Cl)cc1-c1ccnc2c(C(=O)O)csc12` [compound 888], the IC50 reads like this: under setting [1], less than 50 nM; under setting [2], 40.2 nM.
In the case of `Cc1nc2cnc(C3CCC(F)(F)CC3)c(C#N)c2c(=O)n1CC#Cc1ccc(Cl)cc1-c1ccnc2c(C(=O)O)csc12` [compound 1481], under setting [3], the IC50 is 20.8 nM.
As to `Cc1cc(-c2cc(Cl)ccc2OCCn2c(C)nc3cc(Cl)c(N(C)c4cncc(F)c4)c(C#N)c3c2=O)c2scc(C(=O)O)c2n1` [compound 961], the IC50 was less than 50 nM under setting [1] and 21.1 nM under setting [2].
The corresponding values for `Cc1cc(-c2cc(Cl)ccc2OCCn2c(C)nc3cc(C(F)(F)F)c(C4CCCN4C)c(C#N)c3c2=O)c2scc(C(=O)O)c2n1` (centres unmarked) [compound 708] are 50 to 1000 nM and 87.8 nM.
Regarding `Cc1nc2cc(C(F)(F)F)cc(C#N)c2c(=O)n1CCOc1ccc(Cl)cc1-c1cc(C2CC2)nc2c(C(=O)O)csc12` [compound 672], the IC50 under setting [1] is 50 to 1000 nM and the IC50 under setting [2] is 106 nM.
As for `Cc1cc(-c2cc(Cl)ccc2OCCn2c(C)nc3cc(C(F)(F)F)c(N4CCN(C)C(C(F)(F)F)C4)c(C#N)c3c2=O)c2sc(C)c(C(=O)O)c2n1` (centres unmarked) [compound 1207], the IC50 by setting is: under setting [1], 50 to 1000 nM; under setting [3], 121 nM.
In the case of `Cc1nc2cc(F)c(F)c(C#N)c2c(=O)n1CCOc1ccc(Cl)cc1-c1ccnc2c(C(=O)O)csc12` [compound 1947], the IC50 under setting [3] was 29.7 nM.
On to `Cc1nc2ccc(S(=O)(=O)c3ccccn3)c(C#N)c2c(=O)n1CCOc1ccc(Cl)cc1-c1ccnc2c(C(=O)O)csc12` [compound 297], for which the IC50 is, setting by setting: under setting [1], less than 50 nM; under setting [2], 36.3 nM.
